Literature values, collected in patent US20070208041A1, “Compositions for the treatment and prevention of heart disease and methods of using same” (priority 2005, published 2007).

Assays:
[1] = tested on: phenylephrine-constricted rat aorta
[2] = allopurinol alone

| Structure (SMILES) | effect of ALDH-2 inhibitor benomyl on vasodilator response [1] | outcome of clinical trials [2] |
| --- | --- | --- |
| O=[N+]([O-])O[C@H]1CO[C@H]2[C@@H]1OC[C@H]2O[N+](=O)[O-] [isosorbide dinitrate, 1,4:3,6-dianhydrosorbitol 2,5-dinitrate] | not affected |  |
| O=[N+]([O-])O[C@@H]1CO[C@H]2[C@@H]1OC[C@@H]2O [isosorbide-5-mononitrate, 1,4:3,6-dianhydrosorbitol 5-mononitrate] | not affected |  |
| O=[N+]([O-])OCC(CO[N+](=O)[O-])O[N+](=O)[O-] [GTN] | reduced the vasodilator potency, but not the efficacy |  |
| O=[N+]([O-])OCC(CO)(CO)CO [pentaerythritol mononitrate] | not affected |  |
| Oc1ncnc2[nH]ncc12 [allopurinol] |  | not successful |
